# Reference: article PMC5688144, “Assay interference and off-target liabilities of reported histone acetyltransferase inhibitors” (Nature Communications, 2017)
# Entries after “also recorded” stand apart in the source; their conditions may differ.
# Columns and labels:
# [1] = target: T1, p300 (Homo sapiens, UniProt Q09472); settings: read-out: IC50 (µM), p300; original report; 22 (Supplementary References); cited from earlier work
# T1 construct: Reaction Biology Corporation (assays run by this contract lab)
# [2] = target: 200 kinases; experiment: Expanded kinase profile (Cerep/Eurofins); assay type: biochemical; settings: 10 μM compound
# Protocol: Assays were performed using either homogeneous time-resolved fluorescence or LANCE® time-resolved-FRET formats (see cerep.fr for additional details). […] Reference control compounds were included in each assay.
# [3] = tested on: panel of proteases, kinases, and phosphatases; experiment: Pilot selectivity panel (Reaction Biology); assay type: biochemical; settings: 10 µM compound
# Protocol: (§1) Selectivity profiles vs. HATs, HDACs, SIRTs, HMTs, proteases, kinases, and phosphatases were performed by Reaction Biology Corporation (Malvern, PA; Fig. 3 and Supplementary Fig. 3). Percent activity was normalized to DMSO-only controls. Reference control compounds were included in each assay.
# (§2) Relevant reaction procedures for each target class are briefly summarized (see reactionbiology.com for additional details). HATs: reaction buffer 50 mM Tris–HCl, pH 8.0, 50 mM NaCl, 0.1 mM EDTA, ± 1 mM DTT, 1 mM PMSF, 1% DMSO; substrate [^3H]-acetyl-CoA; reaction time 1 h; end-point measurement. […] HMTs: reaction buffer 50 mM Tris–HCl, pH 8.0, 0.01% Brij35, 1 mM EDTA, 1 mM DTT, 1 mM PMSF, 1% DMSO (EZH2); reaction buffer 50 mM Tris–HCl, pH 7.5, 5 mM EDTA, 0.01% Brij35, 5 mM DTT, 0.1 mM PMSF, 5% glycerol, 1% DMSO; 50 mM Tris–HCl, pH 8.5, 5 mM MgCl2, 50 mM NaCl, 0.01 Brij35, 1 mM DTT, 1% DMSO (G9a); methyl donor 1 μM S-Adenosyl-L-[methyl-^3H]-methionine; substrate 5 μM histone proteins or 0.05 mg mL^−1 nucleosomes; pre-incubation time 10–15 min; reaction time 0.5–1 h; end-point measurement. Caspases: reaction buffer 50 mM HEPES, pH 7.4, 1 M citrate, 100 mM NaCl, 0.01% CHAPS, 0.1 mM EDTA, 10 mM DTT; fluorogenic peptide substrate; pre-incubation time 10 min; reaction time 2 h; time-course measurement. Kinases: reaction buffer 20 mM HEPES, pH 7.5, 10 mM MgCl2, 1 mM EGTA, 0.02% Brij35, 0.02 mg mL^−1 BSA, 0.1 mM Na3VO4, 2 mM DTT, 1% DMSO; substrate [^33P]-ATP; reaction time 2 h; end-point measurement.
# [4] = tested on: Rtt109; settings: cited from earlier work
# [5] = tested on: MOZ; settings: @ 10 µM; ref 5 (Supplementary References); cited from earlier work
# [6] = tested on: SAS; design: method as in ref 5 (Supplementary References); settings: @ 10 µM; ref 5 (Supplementary References); cited from earlier work
# [7] = tested on: HEK293T and MCF7 cells; experiment: Cell proliferation by cell confluence; assay type: cell-based; settings: 30 µM compound; MCF7 and HEK293T cells
# Protocol: Cells were cultured in DMEM supplemented with 10% fetal bovine serum (Winsent), penicillin (100 U mL^−1), and streptomycin (100 µg mL^−1). Compounds dissolved in DMSO or matching DMSO-only controls were added to cells for indicated times. Compound effects in cells were determined as described[67] and are outlined below.
# (§3) For cell growth analyses, cells were seeded in 96-well plates, treated with compounds for the indicated times, and monitored over time in a live cell Incucyte™ ZOOM imager (Essen Biosciences). To label apoptotic and dead cells, caspase 3/7 activatable DEVD recognition motif NucView™ 488 DNA intercalating dye (1:1000 dilution, Essen Biosciences) and SYTOX™ green nucleic acid stain (1:1000 dilution, Invitrogen) were used respectively, following manufacturer instructions.
# [8] = tested on: KAT5; design: method as in ref 22 (Supplementary References); settings: original report; ref 22 (Supplementary References); cited from earlier work
# [9] = tested on: MYST4; settings: original report; ref 22 (Supplementary References); cited from earlier work
# [10] = tested on: MOF; design: method as in ref 19, 26 (Supplementary References); settings: original report; 26 (Supplementary References); cited from earlier work
# [11] = target: T2, PCAF (Homo sapiens, UniProt Q92831); experiment: PCAF activity in presence and absence of DTT; assay type: biochemical; settings: 10 and 100 μM compound
# T2 construct: Reaction Biology Corporation (assays run by this contract lab)
# Protocol: as §1
# as §2, with “Kinases: reaction buffer 20 mM HEPES, pH 7.5, 10 mM MgCl2, 1 mM EGTA, 0.02% Brij35, 0.02 mg mL^−1 BSA, 0.1 mM Na3VO4, 2 mM DTT, 1% DMSO; substrate [^33P]-ATP; reaction time 2 h; end-point measurement.” left out
# [12] = tested on: caspase 3/7 activity in HEK293T and MCF7 cells; experiment: Live-cell caspase 3/7 activity; assay type: cell-based; settings: 24 h after compound addition
# Protocol: as §3
# T2 sequence (Q92831 whole entry, species assumed): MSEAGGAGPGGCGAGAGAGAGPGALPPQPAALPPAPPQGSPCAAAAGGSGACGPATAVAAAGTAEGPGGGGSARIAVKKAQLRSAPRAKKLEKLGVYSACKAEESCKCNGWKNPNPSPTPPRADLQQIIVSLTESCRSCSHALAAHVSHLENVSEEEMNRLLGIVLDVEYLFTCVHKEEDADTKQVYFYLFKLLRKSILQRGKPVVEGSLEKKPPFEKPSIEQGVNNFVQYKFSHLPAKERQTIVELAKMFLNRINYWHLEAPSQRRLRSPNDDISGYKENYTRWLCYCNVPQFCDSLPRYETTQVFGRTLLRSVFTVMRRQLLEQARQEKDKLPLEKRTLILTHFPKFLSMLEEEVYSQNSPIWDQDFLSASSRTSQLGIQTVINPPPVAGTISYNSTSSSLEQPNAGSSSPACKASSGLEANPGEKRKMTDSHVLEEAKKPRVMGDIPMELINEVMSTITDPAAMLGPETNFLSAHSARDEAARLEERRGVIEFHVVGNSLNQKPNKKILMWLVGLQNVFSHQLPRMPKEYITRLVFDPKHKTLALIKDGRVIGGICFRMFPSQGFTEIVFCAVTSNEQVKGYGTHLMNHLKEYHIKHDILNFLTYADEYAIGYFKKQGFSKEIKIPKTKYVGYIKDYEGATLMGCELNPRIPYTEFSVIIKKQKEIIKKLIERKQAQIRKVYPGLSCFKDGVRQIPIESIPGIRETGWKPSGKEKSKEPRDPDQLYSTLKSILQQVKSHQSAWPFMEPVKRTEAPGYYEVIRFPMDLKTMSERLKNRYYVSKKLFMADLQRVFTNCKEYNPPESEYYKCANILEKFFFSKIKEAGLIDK
# T1 sequence (Q09472 whole entry, species assumed): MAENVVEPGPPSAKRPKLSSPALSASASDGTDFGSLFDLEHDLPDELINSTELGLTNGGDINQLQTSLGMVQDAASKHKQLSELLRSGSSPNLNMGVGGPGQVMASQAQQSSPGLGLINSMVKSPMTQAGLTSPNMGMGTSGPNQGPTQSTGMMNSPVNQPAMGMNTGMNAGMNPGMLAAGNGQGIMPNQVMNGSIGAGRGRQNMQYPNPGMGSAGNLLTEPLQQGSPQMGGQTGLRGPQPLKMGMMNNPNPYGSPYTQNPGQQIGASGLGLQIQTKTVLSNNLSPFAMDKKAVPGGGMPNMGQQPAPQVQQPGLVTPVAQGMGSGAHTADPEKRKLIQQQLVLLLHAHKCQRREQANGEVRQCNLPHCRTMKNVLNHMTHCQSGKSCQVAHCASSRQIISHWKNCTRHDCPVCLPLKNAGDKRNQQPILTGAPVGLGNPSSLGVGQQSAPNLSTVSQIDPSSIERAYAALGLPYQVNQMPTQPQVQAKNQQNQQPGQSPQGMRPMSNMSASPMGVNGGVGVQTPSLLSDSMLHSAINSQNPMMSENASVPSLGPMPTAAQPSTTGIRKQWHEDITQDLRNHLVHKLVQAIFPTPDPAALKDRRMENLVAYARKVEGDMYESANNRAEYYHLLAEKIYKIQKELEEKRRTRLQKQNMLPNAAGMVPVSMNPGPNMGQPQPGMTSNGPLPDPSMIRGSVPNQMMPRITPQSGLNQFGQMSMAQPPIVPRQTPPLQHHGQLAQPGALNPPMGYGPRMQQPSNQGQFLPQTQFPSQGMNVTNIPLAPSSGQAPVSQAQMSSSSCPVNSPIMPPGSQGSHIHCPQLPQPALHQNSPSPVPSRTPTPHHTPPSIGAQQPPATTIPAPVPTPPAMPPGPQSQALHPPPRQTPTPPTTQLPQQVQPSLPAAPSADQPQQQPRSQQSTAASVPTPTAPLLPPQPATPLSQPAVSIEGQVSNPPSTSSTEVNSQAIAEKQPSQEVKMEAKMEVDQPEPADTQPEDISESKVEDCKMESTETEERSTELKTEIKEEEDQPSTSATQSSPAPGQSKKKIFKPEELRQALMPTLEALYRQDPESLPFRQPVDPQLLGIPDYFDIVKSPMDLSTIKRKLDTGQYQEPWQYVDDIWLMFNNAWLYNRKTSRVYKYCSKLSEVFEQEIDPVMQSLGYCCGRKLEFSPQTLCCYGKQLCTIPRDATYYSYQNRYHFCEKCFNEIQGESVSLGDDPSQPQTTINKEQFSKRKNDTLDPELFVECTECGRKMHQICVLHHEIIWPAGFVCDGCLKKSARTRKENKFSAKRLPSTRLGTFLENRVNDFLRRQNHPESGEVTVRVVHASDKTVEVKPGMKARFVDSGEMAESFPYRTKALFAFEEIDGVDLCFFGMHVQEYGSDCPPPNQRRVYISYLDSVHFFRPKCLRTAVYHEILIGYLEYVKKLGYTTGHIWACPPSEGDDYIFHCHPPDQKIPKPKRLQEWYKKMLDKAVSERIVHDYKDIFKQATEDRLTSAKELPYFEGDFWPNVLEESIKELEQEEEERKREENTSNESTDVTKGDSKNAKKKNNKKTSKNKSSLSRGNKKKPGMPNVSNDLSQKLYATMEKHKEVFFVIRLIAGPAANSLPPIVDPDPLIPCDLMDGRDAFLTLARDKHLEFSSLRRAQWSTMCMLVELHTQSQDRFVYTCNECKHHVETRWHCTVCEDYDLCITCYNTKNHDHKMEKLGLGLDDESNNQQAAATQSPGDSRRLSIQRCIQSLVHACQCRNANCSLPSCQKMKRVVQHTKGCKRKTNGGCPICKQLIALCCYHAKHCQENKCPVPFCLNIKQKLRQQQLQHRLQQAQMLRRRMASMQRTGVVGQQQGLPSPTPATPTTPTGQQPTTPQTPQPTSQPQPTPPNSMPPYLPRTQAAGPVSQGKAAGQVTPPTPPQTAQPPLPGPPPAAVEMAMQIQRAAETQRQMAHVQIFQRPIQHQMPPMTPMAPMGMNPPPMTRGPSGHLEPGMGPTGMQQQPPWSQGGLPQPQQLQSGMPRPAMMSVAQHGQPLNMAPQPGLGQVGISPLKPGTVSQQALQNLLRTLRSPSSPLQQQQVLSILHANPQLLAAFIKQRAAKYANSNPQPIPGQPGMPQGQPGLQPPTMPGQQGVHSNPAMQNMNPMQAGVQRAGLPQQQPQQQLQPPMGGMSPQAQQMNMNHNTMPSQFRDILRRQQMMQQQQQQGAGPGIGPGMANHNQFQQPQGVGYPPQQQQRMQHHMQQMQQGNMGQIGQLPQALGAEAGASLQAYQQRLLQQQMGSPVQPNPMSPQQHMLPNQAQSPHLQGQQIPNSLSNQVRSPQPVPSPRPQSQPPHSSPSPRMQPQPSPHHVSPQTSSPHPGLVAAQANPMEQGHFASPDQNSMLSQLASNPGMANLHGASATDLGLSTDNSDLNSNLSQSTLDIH
compound,measurement,setting,value
"Cc1cc2c(C(C)C)c(O)c(O)c(C=O)c2c(O)c1-c1c(C)cc2c(C(C)C)c(O)c(O)c(C=O)c2c1O [Compound 16, Gossypol]",IC50,[1],~25 µM
"CC1=NN(c2ccc(C(=O)O)cc2)C(=O)/C1=C/c1ccc(-c2cc(C)c(C)cc2[N+](=O)[O-])o1 [Compound 1, C646]",kinases with >50% inhibition,[2],26 out of 200
same,inhibition against the tested kinases and phosphatases,[3],low levels of inhibition
same,proteases with > 50% inhibition,[3]; 17 proteases,7 out of 17
same,"% inhibition, Rtt109","[4]; @ 10 µM, ref 5 (Supplementary References)",< 10%
same,"% inhibition, MOZ",[5],< 10%
same,"% inhibition, SAS",[6],< 10%
Plumbagin [Compound 8],cell death by cell confluence studies,[7],causes cell death
"COc1ccc(/C(Cl)=C(/C=O)c2ccc(OC)cc2)cc1 [Compound 18, Windorphen]",IC50,[8],> 100 µM
same,IC50,[9],> 100 µM
"CCCCCCCc1ccc(CCc2cccc(O)c2C(=O)O)cc1 [Compound 15, MG 149]",IC50,[10],47 µM
"COc1ccc(S(=O)(=O)ON=C2C=C(C)C(=O)C(C)=C2)cc1 [Compound 5, L002]",inhibition of PCAF in the absence of DTT compared with DTT present,[11],notable exceptions
"O=c1c2cccnc2sn1Cc1ccc(C(F)(F)F)cc1 [Compound 3, PU141]",inhibition of PCAF in the absence of DTT compared with DTT present,[11],notable exceptions
same,activity vs. most of the targets tested,"[3]; proteases, kinases, phosphatases",little activity
"CCCC1(c2ccccc2)NC(=O)N(CC(=O)N(C)Cc2c(F)cccc2Cl)C1=O (stereo not shown) [Compound 21, N-[(2-chloro-6-fluorophenyl)methyl]-2-(2,5-dioxo-4-phenyl-4-propylimidazolidin-1-yl)-N-methylacetamide]",IC50,"[4]; original report, ref 25 (Supplementary References)",0.056 µM
"O=C1/C(=C/c2ccc(O)c(Br)c2)CCC/C1=C\c1ccc(O)c(Br)c1 [Compound 12, HAT inhibitor II]",caspase 3/7 activity,[12],induce; also recorded: dose-dependent increases
